Laboratory results taken from publication PMC9743148 (Annals of oncology : official journal of the European …, 2020).
Entries after “also recorded” stand apart in the source; their conditions may differ. Read-outs that look alike come from different tables or passages of the source.

Legend:
[1] = system: patients with advanced solid tumors; assay: Dose-limiting toxicity, MTD and RP2D determination; type: in vivo, human
[2] = Dose-proportionality power regression of PK parameters; type: in vivo, human; settings: 8–200-mg dose range t.i.w.
[3] = for T1/2 / Tmax: 20 mg q.d.
clinical = settings: human, plasma, oral; for AUC(0-inf): AUC0–inf; for AUC(0-t): AUC0–last
[4] = 4 mg, 4 mg q.d., cycle 1 Day 1, mean
[5] = 4 mg, 4 mg q.d., cycle 1 Day 21, mean
[6] = 8 mg, 8 mg q.d., cycle 1 Day 1, mean
[7] = 8 mg, 8 mg t.i.w., cycle 1 Day 1, mean
[8] = 8 mg, 8 mg q.d., cycle 1 Day 21, mean
[9] = 8 mg, 8 mg t.i.w., cycle 1 Last Wednesday, mean
[10] = 16 mg, 16 mg q.d., cycle 1 Day 1, mean
[11] = 16 mg, 16 mg t.i.w., cycle 1 Day 1, mean
[12] = 16 mg, 16 mg q.d., cycle 1 Day 21, mean
[13] = 20 mg, 20 mg q.d., cycle 1 Day 1, mean
[14] = 20 mg, 20 mg q.d., cycle 1 Day 21, mean
[15] = 24 mg, 24 mg q.d., cycle 1 Day 1, mean
[16] = 24 mg, 24 mg t.i.w., cycle 1 Day 1, mean
[17] = 24 mg, 24 mg q.d., cycle 1 Day 21, mean
[18] = 36 mg, 36 mg t.i.w., cycle 1 Day 1, mean
[19] = 56 mg, 56 mg t.i.w., cycle 1 Day 1, mean
[20] = 80 mg, 80 mg t.i.w., cycle 1 Day 1, mean
[21] = 120 mg, 120 mg t.i.w., cycle 1 Day 1, mean
[22] = 160 mg, 160 mg t.i.w., cycle 1 Day 1, mean

C=CC(=O)N1CC[C@H](n2nc(C#Cc3cc(OC)cc(OC)c3)c3c(N)ncnc32)C1 [futibatinib]
Dose-limiting toxicities ([1]; 4, 8, 16, or 20 mg q.d.): No DLTs were observed | Recommended phase II dose (RP2D) ([1]; human, in vivo, oral, 21 days): 20 mg q.d. | Dose-limiting toxicities ([1]; other t.i.w. cohorts including 200 mg): no DLTs were reported | Maximum tolerated dose (MTD) ([1]; q.d. schedule): 20 mg q.d. | Maximum tolerated dose (MTD) ([1]; t.i.w. schedule, up to 200 mg): no MTD was defined; also recorded: not defined | Dose proportionality of Cmax [2]: less than a dose-proportional manner | T1/2 ([3]; cycle 1 Day 1, mean): 2.94 h | Tmax ([3]; cycle 1 Day 1, median): 1.92 h | T1/2 ([3]; cycle 1 Day 21, mean): 3.44 h | Tmax ([3]; cycle 1 Day 21, median): 3.52 h | Accumulation with repeated doses ([3]; both schedules): no significant accumulation | Urinary excretion of futibatinib ([3]; urine): lower than 0.01 % of the dose | Patients with CCA experiencing PR or SD (advanced solid tumors; 18 of 24 patients with cholangiocarcinoma): 75% | Best overall response of confirmed partial response (PR) (advanced solid tumors; across cohorts (n = 86)): five | Responses lasting >6 months (advanced solid tumors; five responders): three | Responses occurring within 3 months of initiating futibatinib (advanced solid tumors; five responders): Four of five | AUC(0-inf) (clinical; [4]): 117 ng·h/mL | AUC(0-t) (clinical; [4]): 114 ng·h/mL | AUC(0-t) (clinical; [5]): 134 ng·h/mL | Cmax (clinical; [4]): 33.1 ng/mL | Cmax (clinical; [5]): 52.5 ng/mL | half-life (clinical; 4 mg, T1/2, 4 mg q.d., cycle 1 Day 1, mean): 1.75 h | half-life (clinical; 4 mg, T1/2, 4 mg q.d., cycle 1 Day 21, mean): 1.63 h | Tmax (clinical; 4 mg, 4 mg q.d., cycle 1 Day 1, median): 0.96 h | Tmax (clinical; 4 mg, 4 mg q.d., cycle 1 Day 21, median): 1.08 h | AUC(0-inf) (clinical; [6]): 524 ng·h/mL | AUC(0-inf) (clinical; [7]): 315 ng·h/mL | AUC(0-t) (clinical; [6]): 666 ng·h/mL | AUC(0-t) (clinical; [8]): 550 ng·h/mL | AUC(0-t) (clinical; [7]): 304 ng·h/mL | AUC(0-t) (clinical; [9]): 472 ng·h/mL | Cmax (clinical; [6]): 169 ng/mL | Cmax (clinical; [8]): 98.2 ng/mL | Cmax (clinical; [7]): 85.5 ng/mL | Cmax (clinical; [9]): 106 ng/mL | half-life (clinical; 8 mg, T1/2, 8 mg q.d., cycle 1 Day 1, mean): 2.26 h | half-life (clinical; 8 mg, T1/2, 8 mg q.d., cycle 1 Day 21, mean): 2.75 h | half-life (clinical; 8 mg, T1/2, 8 mg t.i.w., cycle 1 Day 1, mean): 2.08 h | half-life (clinical; 8 mg, T1/2, 8 mg t.i.w., cycle 1 Last Wednesday, mean): 2.01 h | Tmax (clinical; 8 mg, 8 mg q.d., cycle 1 Day 1, median): 2 h | Tmax (clinical; 8 mg, 8 mg q.d., cycle 1 Day 21, median): 2 h | Tmax (clinical; 8 mg, 8 mg t.i.w., cycle 1 Day 1, median): 1.04 h | AUC(0-inf) (clinical; [10]): 549 ng·h/mL | AUC(0-inf) (clinical; [11]): 744 ng·h/mL | AUC(0-t) (clinical; [10]): 536 ng·h/mL | AUC(0-t) (clinical; [12]): 737 ng·h/mL | AUC(0-t) (clinical; [11]): 736 ng·h/mL | Cmax (clinical; [10]): 148 ng/mL | Cmax (clinical; [12]): 172 ng/mL | Cmax (clinical; [11]): 207 ng/mL | Cmax (clinical; 16 mg, 16 mg t.i.w., cycle 1 Last Wednesday, mean): 213 ng/mL | half-life (clinical; 16 mg, T1/2, 16 mg q.d., cycle 1 Day 1, mean): 2.73 h | half-life (clinical; 16 mg, T1/2, 16 mg q.d., cycle 1 Day 21, mean): 2.53 h | half-life (clinical; 16 mg, T1/2, 16 mg t.i.w., cycle 1 Day 1, mean): 2.11 h | half-life (clinical; 16 mg, T1/2, 16 mg t.i.w., cycle 1 Last Wednesday, mean): 2.75 h | Tmax (clinical; 16 mg, 16 mg q.d., cycle 1 Day 1, median): 2 h | Tmax (clinical; 16 mg, 16 mg q.d., cycle 1 Day 21, median): 2.07 h | Tmax (clinical; 16 mg, 16 mg t.i.w., cycle 1 Day 1, median): 1 h | Tmax (clinical; 16 mg, 16 mg t.i.w., cycle 1 Last Wednesday, median): 1 h | AUC(0-inf) (clinical; [13]): 1300 ng·h/mL | AUC(0-t) (clinical; [13]): 1190 ng·h/mL | AUC(0-t) (clinical; [14]): 1180 ng·h/mL | Cmax (clinical; [13]): 257 ng/mL | Cmax (clinical; [14]): 171 ng/mL | half-life (clinical; 20 mg, T1/2, 20 mg q.d., cycle 1 Day 1, mean): ~3 h | half-life (clinical; 20 mg, T1/2, 20 mg q.d., cycle 1 Day 21, mean): ~3 h | AUC(0-inf) (clinical; [15]): 1270 ng·h/mL | AUC(0-inf) (clinical; [16]): 2200 ng·h/mL | AUC(0-t) (clinical; [15]): 1220 ng·h/mL | AUC(0-t) (clinical; [17]): 1420 ng·h/mL | AUC(0-t) (clinical; [16]): 1790 ng·h/mL | Cmax (clinical; [15]): 246 ng/mL | Cmax (clinical; [17]): 194 ng/mL | Cmax (clinical; [16]): 258 ng/mL | Cmax (clinical; 24 mg, 24 mg t.i.w., cycle 1 Last Wednesday, mean): 361 ng/mL | half-life (clinical; 24 mg, T1/2, 24 mg q.d., cycle 1 Day 1, mean): 3.13 h | half-life (clinical; 24 mg, T1/2, 24 mg q.d., cycle 1 Day 21, mean): 3.12 h | half-life (clinical; 24 mg, T1/2, 24 mg t.i.w., cycle 1 Day 1, mean): 3.52 h | half-life (clinical; 24 mg, T1/2, 24 mg t.i.w., cycle 1 Last Wednesday, mean): 5.99 h | Tmax (clinical; 24 mg, 24 mg q.d., cycle 1 Day 1, median): 1.98 h | Tmax (clinical; 24 mg, 24 mg q.d., cycle 1 Day 21, median): 2 h | Tmax (clinical; 24 mg, 24 mg t.i.w., cycle 1 Day 1, median): 3 h | Tmax (clinical; 24 mg, 24 mg t.i.w., cycle 1 Last Wednesday, median): 1.05 h | AUC(0-inf) (clinical; [18]): 2680 ng·h/mL | AUC(0-t) (clinical; [18]): 2670 ng·h/mL | Cmax (clinical; [18]): 556 ng/mL | Cmax (clinical; 36 mg, 36 mg t.i.w., cycle 1 Last Wednesday, mean): 736 ng/mL | half-life (clinical; 36 mg, T1/2, 36 mg t.i.w., cycle 1 Day 1, mean): 4.84 h | half-life (clinical; 36 mg, T1/2, 36 mg t.i.w., cycle 1 Last Wednesday, mean): 6.57 h | Tmax (clinical; 36 mg, 36 mg t.i.w., cycle 1 Day 1, median): 2 h | Tmax (clinical; 36 mg, 36 mg t.i.w., cycle 1 Last Wednesday, median): 2.56 h | AUC(0-inf) (clinical; [19]): 3300 ng·h/mL | AUC(0-t) (clinical; [19]): 3290 ng·h/mL | Cmax (clinical; [19]): 695 ng/mL | Cmax (clinical; 56 mg, 56 mg t.i.w., cycle 1 Last Wednesday, mean): 930 ng/mL | half-life (clinical; 56 mg, T1/2, 56 mg t.i.w., cycle 1 Day 1, mean): 5.97 h | half-life (clinical; 56 mg, T1/2, 56 mg t.i.w., cycle 1 Last Wednesday, mean): 6.24 h | Tmax (clinical; 56 mg, 56 mg t.i.w., cycle 1 Day 1, median): 3.08 h | Tmax (clinical; 56 mg, 56 mg t.i.w., cycle 1 Last Wednesday, median): 2 h | AUC(0-inf) (clinical; [20]): 9560 ng·h/mL | AUC(0-t) (clinical; [20]): 7470 ng·h/mL | Cmax (clinical; [20]): 964 ng/mL | Cmax (clinical; 80 mg, 80 mg t.i.w., cycle 1 Last Wednesday, mean): 757 ng/mL | half-life (clinical; 80 mg, T1/2, 80 mg t.i.w., cycle 1 Day 1, mean): 4.77 h | half-life (clinical; 80 mg, T1/2, 80 mg t.i.w., cycle 1 Last Wednesday, mean): 5.28 h | Tmax (clinical; 80 mg, 80 mg t.i.w., cycle 1 Last Wednesday, median): 3 h | AUC(0-inf) (clinical; [21]): 5310 ng·h/mL | AUC(0-t) (clinical; [21]): 6640 ng·h/mL | Cmax (clinical; [21]): 713 ng/mL | Cmax (clinical; 120 mg, 120 mg t.i.w., cycle 1 Last Wednesday, mean): 910 ng/mL | half-life (clinical; 120 mg, T1/2, 120 mg t.i.w., cycle 1 Day 1, mean): 6.18 h | half-life (clinical; 120 mg, T1/2, 120 mg t.i.w., cycle 1 Last Wednesday, mean): 10.6 h | Tmax (clinical; 120 mg, 120 mg t.i.w., cycle 1 Day 1, median): 3.04 h | Tmax (clinical; 120 mg, 120 mg t.i.w., cycle 1 Last Wednesday, median): 3.17 h | AUC(0-t) (clinical; [22]): 7980 ng·h/mL | Cmax (clinical; [22]): 819 ng/mL | Cmax (clinical; 160 mg, 160 mg t.i.w., cycle 1 Last Wednesday, mean): 863 ng/mL | half-life (clinical; 160 mg, T1/2, 160 mg t.i.w., cycle 1 Day 1, mean): 8.75 h | half-life (clinical; 160 mg, T1/2, 160 mg t.i.w., cycle 1 Last Wednesday, mean): 3.99 h | Tmax (clinical; 160 mg, 160 mg t.i.w., cycle 1 Day 1, median): 2.52 h | Tmax (clinical; 160 mg, 160 mg t.i.w., cycle 1 Last Wednesday, median): 5.57 h | Cmax (clinical; 200 mg, 200 mg t.i.w., cycle 1 Day 1, mean): 1290 ng/mL | Cmax (clinical; 200 mg, 200 mg t.i.w., cycle 1 Last Wednesday, n 1): 845 ng/mL | half-life (clinical; 200 mg, T1/2, 200 mg t.i.w., cycle 1 Day 1, mean): 9.55 h | Tmax (clinical; 200 mg, 200 mg t.i.w., cycle 1 Day 1, median): 2 h
